# According to paper PMC9386018, “A lymphatic-absorbed multi-targeted kinase inhibitor for myelofibrosis therapy” (Nature Communications, 2022):
# System: ERK1/2 and pERK1/2 (pT202/pY204) in bone marrow
# Test: MPL^W515L MF mouse model: ERK1/2 and pERK1/2 immunoblot of bone marrow
# Format: in vivo
# Conditions: MPL^W515L mice, oral 400 mg kg^−1 daily, 28 d
# Experimental: Generation of the MPL^W515L mutant MF mouse model was similar to previously described methods. Briefly, female donor BALB/c mice were treated with 5-fluorouracil at 150 mg kg^−1 intraperitoneal for 5 d before harvesting bone marrow. Hematopoietic stem and progenitor cells were enriched with CD117 magnetic beads (Miltenyi Biotec), transduced with retrovirus containing MSCV-hMPL W515L-IRES-GFP, then 50,000 transduced HSPCs along with 300,000 total non-stem cells were injected intravenously into lethally irradiated female BALB/c recipients. Development of MF was evaluated by spleen volumes using MRI beginning ~14 d following bone marrow transplantation (BMT) as outlined below, continuing weekly until end of the study. Mice were separated into equal groups based on spleen size ~14–21 d post-BMT, then treated with vehicle (Maisine CC) or LP-182 at 400 mg kg^−1 daily by oral gavage for 14–28 d or until mice were euthanized using guidelines for end stage illness and humane endpoints. Untreated healthy control animals were used for experimental comparisons. […] Soluble protein extracts were isolated by centrifugation at 15,000 x g for 15 min at 4 °C, quantified using Micro BCA protein assay (Thermo Scientific), then mixed with reducing 6X SDS-PAGE loading dye, heated for 8 min at 95 °C, and stored at −20 °C until immuno-blot analysis. […]
smiles,measurement,value
"O=C(NOCCOCCOCCOCCC(=O)N1CCN(c2cnc3ccc(-c4cnc(Cl)c(NS(=O)(=O)c5ccc(F)cc5)c4)cc3n2)CC1)c1ccc(F)c(F)c1Nc1ccc(I)cc1F [LP-182, N-(2-(2-(2-(3-(4-(7-(6-chloro-5-((4-fluorophenyl)sulfonamido)pyridin-3-yl)quinoxalin-2-yl)piperazin-1-yl)-3-oxopropoxy)ethoxy)ethoxy)ethoxy)-3,4-difluoro-2-((2-fluoro-4-iodophenyl)amino)benzamide]",levels and activation of ERK1/2 in bone marrow,attenuate downstream MPL^W515L signal transduction
